Consider 1 compound from patent publication US6464839B1, “Beta-elemene, method to prepare the same and uses thereof” (Yuan da International Group Limited, priority 1997, dated 2002).

The subject of data set [1] is thalamic glioblastoma; brain metastasis of lung cancer. The experiment in a line: Treatment of patients with brain tumors with beta-elemene emulsive injection. The format is in vivo, human. On the procedure:
In two instances, patients at the Second Affiliated Hospital of the Dalian Medical University were treated with the beta-elemene composition as an emulsive injection. The medical records were kept at that hospital.
The patient was hospitalized for surgery in July 1995. […] A beta-elemene emulsive injection was employed through 600 ml cervical artery intubation and 400 ml intravenous drip alternately once per day.
Due to the lung metastasis and the age of the patient, surgery was difficult to perform. The patient was hospitalized in mid November 1996.
The patient was treated with beta-elemene as prepared herein. […] In the middle of December 1996 the patient had another CT scan.

A short description of data set [2]: Passage through the brain-blood barrier. The note with it: work of the Department of Embryology, Dalian Medical University. The format is in vivo.
Data set [3] has as its system hepatic ascites carcinoma. The data set is described as follows: Hepatic ascites carcinoma, animal pharmacodynamic study.
Data set [4] deals with S180 ascites cancer. The experiment in a line: S180 ascites cancer, animal pharmacodynamic study. The conditions noted are these: intra-peritoneal injection.
Data set [5] has as its system rat ascitic reticulum cell sarcoma. The note with it: material with beta-elemene 65%, gamma and delta-elemene 20%, impurities 15%; cited from earlier work.
Data set [6] is described as follows: Side effects in animal pharmacodynamic studies (bone marrow, white blood cell count). In kind it is in vivo.
For data set [7], the system named is S180 solid tumor. The data set is described as follows: S180 solid tumor, animal pharmacodynamic study. The conditions noted are these: injection.
Data set [8] concerns cerebral neuroglioma. The data set is described as follows: Cerebral neuroglioma, murine sub-renal capsule model. In kind it is in vivo. An excerpt:
(D) Neuroglioma: It was indicated in the pharmacodynamic study of cerebral neuroglioma using murine sub-renal capsule model that the inhibition rate was 50-70%.

Data set [9] has as its system hepatic solid tumor. The experiment in a line: Hepatic solid tumor, animal pharmacodynamic study.
Data set [10] deals with L1210 leukemia. The data set is described as follows: Murine leukemia L1210, animal pharmacodynamic study. The note with it: injection.
For data set [11] the following is noted: material with beta-elemene 65%, gamma and delta-elemene 20%, impurities 15%; cited from earlier work.
Data set [12] has as its system EAC. The experiment in a line: EAC ascites carcinoma, animal pharmacodynamic study. The note with it: EAC ascites cancer, intra-peritoneal injection.
The test system of data set [13] is murine Ehrlich ascites carcinoma. The note with it: material with beta-elemene 65%, gamma and delta-elemene 20%, impurities 15%; cited from earlier work.
The mark [14] stands for this setting: Patient I, thalamic glioblastoma.

As for `C=CC1(C)CCC(C(=C)C)CC1C(=C)C` (stereo not drawn) [beta-elemene, 1-methyl-1-vinyl-2,4-diisoprotenyl-cyclohexane], the “survival with the tumor” value in data set [1] (setting [14]) is on record as 11 months. The “tumor size on CT scan” value in [1] (setting [14]) was “no apparent reduction in tumor size”; in data set [1] (Patient II, lung cancer with multiple metastasis to the brain, about one month of treatment), “The size of the tumor was reduced”. Moreover, the “growth of the tumor” value in data set [1] (Patient I, thalamic glioblastoma, cervical artery intubation and intravenous drip alternately once per day) is “quickly controlled”. In addition, the “prolongation of the life of the patient” value in data set [1] (Patient II, based upon previous experience with patients at that stage of illness) is recorded as “more than 4 months”. Moreover, in data set [2], the “ability to pass through the brain-blood barrier (BBB)” value was “able to pass through the brain-blood barrier (BBB)”. For the same compound, the life prolongation rate is reported as 103-224% in data set [3], 90-321% in [4], 47-289% in data set [10] and 85-310% in [12]. The anti-tumor activity result in [5] and in data set [13] was “marked anti-tumor activity” in each case. Also, in data set [6], the “bone marrow inhibition or reduction of white blood cell count” value was “no measurable bone marrow inhibition or reduction of white blood cell count”. Besides, the inhibition rate in [7] is on record as 33-59%; in [8] it was 50-70%; in data set [9] it was 10-30%. Further, in [11], the “side effects during treatment” value is “Diarrhea and weight loss”.
